Patent US6831199B1, “Pyrimidine compounds and derivatives thereof” (G. D. Searle & Co., priority 1995, dated 2004)
Where a name gives a salt, the structure may show the parent alone.

Biological target: T1, Human vitronectin receptor (αvβ3) (Homo sapiens, UniProt P05106+P06756)
T1 construct: Human vitronectin receptor (αvβ3) was purified from human placenta; from tissue; host or cells: human placenta
Experiment: Vitronectin adhesion assay (solid phase receptor assay, competition with biotinylated vitronectin)
Type: binding
Conditions: read-out: AvB3 IC50
How it was run: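 Purified human αvβ3 coated overnight at 4 °C in TBS with 1.0 mM Ca++, Mg++, Mn++, pH 7.4; compounds (top final 1.0×10^−4 M) competed with 1 nM biotinylated vitronectin for 2 h at room temperature. Bound ligand detected by HRP anti-biotin/OPD at A450; values normalized to no-competitor controls, four-parameter curve fit.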

IC50 [nM] | SMILES
20.4 | N=C(N)Nc1cccc(C(=O)NCC(=O)N[C@@H](CC(=O)O)CS(=O)(=O)c2ccccc2C(=O)O)c1 [Example 71, 2-[[2S-[[2-[[[3-[(aminoiminomethyl)amino]phenyl]carbonyl]amino]acetyl]amino]-2-(carboxymethyl)ethyl]sulfonyl]benzoic acid, TFA salt]
8.44 | Cc1ccc(O)c(C(CC(=O)O)NC(=O)CNC(=O)c2cccc(NC(=N)N)c2)c1 (racemic) [Example 88, (±)β-[[2-[[[3-[(aminoiminomethyl)amino]phenyl]carbonyl]amino]acetyl]amino]-2-hydroxy-5-methylbenzenepropanoic acid, trifluoroacetate salt]
9.7 | Cc1ccc(S(=O)(=O)NCC(CC(=O)O)NC(=O)CNC(=O)c2cccc(NC(=N)N)c2)cc1 (stereo not drawn) [Example 65, 3-[[2-[[[3-[(aminoiminomethyl)amino]phenyl]carbonyl]amino]acetyl]amino]-4-[[(4-methylphenyl)sulfonyl]amino]butanoic acid, trifluoroacetate salt]
3.39 | Cc1ccc(C(=O)NCC(=O)NC(CC(=O)O)c2cccnc2)cc1NC(=N)N (racemic) [Example 83, (±)β-[[2-[[[3-[(aminoiminomethyl)amino]-4-methylphenyl]carbonyl]amino]acetyl]amino]pyridine-3-propanoic acid, bis(trifluoroacetate)salt]
3.12 | N=C(N)Nc1cccc(C(=O)NCC(=O)NC(CC(=O)O)c2ccc3ccccc3c2)c1 (racemic) [Example 56, (±)β-[[2-[[[3-[(aminoiminomethyl)amino]phenyl]carbonyl]amino]acetyl]amino]naphthalene-2-propanoic acid, trifluoroacetate salt]
2.35 | N=C(N)Nc1cccc(C(=O)NCC(=O)NC(CC(=O)O)c2ccsc2)c1 (racemic) [Example 59, (±)β-[[2-[[[3-[(aminoiminomethyl)amino]phenyl]carbonyl]amino]acetyl]amino]thiophene-3-propanoic acid, trifluoroacetate salt]
1.44 | Cc1ccc(SCCC(CC(=O)O)NC(=O)CNC(=O)c2cccc(NC(=N)N)c2)cc1 (racemic) [Example 66, (±)3-[[2-[[[3-[(aminoiminomethyl)amino]phenyl]carbonyl]amino]acetyl]amino]-5-[(4-methylphenyl)thio]pentanoic acid, trifluoroacetate salt]
0.38 | N=C(N)Nc1cccc(C(=O)NCC(=O)NC(CC(=O)O)c2cnc3ccccc3c2)c1 (stereo not drawn) [Example 99, β-[[2-[[[3-[(aminoiminomethyl)amino]phenyl]carbonyl]amino]acetyl]amino]quinoline-3-propanoic acid, bis(trifluoroacetate)salt]
3.26 | NC(=S)Nc1cccc(C(=O)NCC(=O)NC(CC(=O)O)c2cccnc2)c1 (stereo not drawn) [Example 114, β-[[2-[[[3-[(aminothioxomethyl)amino]phenyl]carbonyl]amino]acetyl]amino]pyridine-3-propanoic acid, trifluoroacetate salt]
1.76 | N=C(N)Nc1cccc(C(=O)NCC(=O)NC(CC(=O)O)c2cccs2)c1 (racemic) [Example 61, (±)β-[[2-[[[3-[(aminoiminomethyl)amino]phenyl]carbonyl]amino]acetyl]amino]thiophene-2-propanoic acid, trifluoroacetate salt]
2.05 | Cc1ccc(S(=O)(=O)CCC(CC(=O)O)NC(=O)CNC(=O)c2cccc(NC(=N)N)c2)cc1 (racemic) [Example 67, (±)3-[[2-[[[3-[(aminoiminomethyl)amino]phenyl]carbonyl]amino]acetyl]amino]-5-[(4-methylphenyl)sulfonyl]pentanoic acid, trifluoroacetate salt]

Further lines, the compound ahead of its results:

SMILES | IC50 [nM]
N=C(NCc1ccccc1)Nc1cccc(C(=O)NCC(=O)NC(CC(=O)O)c2cccnc2)c1 (racemic) [Example 24, (±)β-[[2-[[[3-[[imino[(phenylmethyl)amino]methyl]amino]phenyl]carbonyl]amino]acetyl]amino]pyridine-3-propanoic acid, bis(trifluoroacetate)salt] | 0.91
N=C(N)Nc1cc(C(=O)NCC(=O)NC(CC(=O)O)c2cccnc2)c2ccccc2c1 (racemic) [Example 8, (±)β-[[2-[[[3-[(aminoiminomethyl)amino]naphthalen-1-yl]carbonyl]amino]acetyl]amino]pyridine-3-propanoic acid, bis(trifluoroacetate)salt] | 0.69
N=C(N)Nc1cccc(C(=O)NCC(=O)NC(CC(=O)O)c2cc(C(F)(F)F)cc(C(F)(F)F)c2)c1 (racemic) [Example 36, (±)β-[[2-[[[3-[(aminoiminomethyl)amino]phenyl]carbonyl]amino]acetyl]amino]-3,5-bis(trifluoromethyl)benzenepropanoic acid, trifluoroacetate salt] | 14.6
O=C(O)CC(NC(=O)CNC(=O)c1cccc(NC2=NCCCCC2)c1)c1cccnc1 (racemic) [Example 12, (±)β-[[2-[[[3-[(3,4,5,6-tetrahydro-2H-azepin-7-yl)amino]phenyl]carbonyl]amino]acetyl]amino]pyridine-3-propanoic acid, bis(trifluoroacetate)salt] | 1.1
C#C[C@H](CC(=O)O)NC(=O)CNC(=O)c1cccc(NC2=NCCCCC2)c1 [Example 30, βS-[[2-[[[3-[(3,4,5,6-tetrahydro-2H-azepin-7-yl)amino]phenyl]carbonyl]amino]acetyl]amino]-4-pentynoic acid, trifluoroacetate salt] | 1.75
O=C(O)CC(NC(=O)CNC(=O)c1cccc(NC(=O)NCc2ccccc2)c1)c1cccnc1 (racemic) [Example 47, (±)β-[[2-[[[3-[[[(phenylmethyl)amino]carbonyl]amino]phenyl]carbonyl]amino]acetyl]amino]pyridine-3-propanoic acid, hydrochloride salt] | 0.86
C#C[C@H](CC(=O)O)NC(=O)CNC(=O)c1cccc(NC(=N)N)c1 [Example 45, 3S-[[2-[[[3-[(aminoiminomethyl)amino]phenyl]carbonyl]amino]acetyl]amino]-4-pentynoic acid, hydrochloride salt] | 0.69
N=C(N)Nc1cccc(C(=O)NCC(=O)NC(CC(=O)O)c2ccoc2)c1 (racemic) [Example 52, (±)β-[[2-[[[3-[(aminoiminomethyl)amino]phenyl]carbonyl]amino]acetyl]amino]furan-3-propanoic acid, trifluoroacetate salt] | 3.62
O=C(O)CC(NC(=O)CNC(=O)c1cccc(NC2=NCCCCC2)c1)c1ccccc1 (racemic) [Example 15, (±)β-[[2-[[[3-[(3,4,5,6-tetrahydro-2H-azepin-7-yl)amino]phenyl]carbonyl]amino]acetyl]amino]benzenepropanoic acid, trifluoroacetate salt] | 10.2
NC(=O)Nc1cccc(C(=O)NCC(=O)NC(CC(=O)O)c2cccnc2)c1 (stereo not drawn) [Example 46, β-[[2-[[[3-(aminocarbonylamino)phenyl]carbonyl]amino]acetyl]amino]pyridine-3-propanoic acid, hydrochloride salt] | 5.34
O=C(O)CC(NC(=O)CNC(=O)c1cccc(NC2=NCCN2)c1)c1cccnc1 (racemic) [Example 10, (±)β-[[2-[[[3-[(4,5-dihydro-1H-imidazol-2-yl)amino]phenyl]carbonyl]amino]acetyl]amino]pyridine-3-propanoic acid, bis(trifluoroacetate)salt] | 0.92
O=C(O)CC(NC(=O)CNC(=O)c1cccc(NC2=NCCC2)c1)c1cccnc1 (stereo not drawn) [Example 17, β-[[2-[[[3-[(3,4-dihydro-2H-pyrrol-5-yl)amino]phenyl]carbonyl]amino]acetyl]amino]pyridine-3-propanoic acid, bis(trifluoroacetate)salt] | 2.66
C#C[C@@H](CC(=O)O)NC(=O)CNC(=O)c1cccc(NC(=N)N)c1 [Example 43, 3R-[[2-[[[(3-[(aminoiminomethyl)amino]phenyl]carbonyl]amino]acetyl]amino]-4-pentynoic acid, hydrochloride salt] | 28.3
N=C(N)Nc1cccc(C(=O)NCC(=O)NC(CC(=O)O)c2ccccc2)c1 (racemic) [Example 4, (±)β-[[2-[[[3-[(aminoiminomethyl)amino]phenyl]carbonyl]amino]acetyl]amino]benzene-propanoic acid, trifluoroacetate salt] | 3.17
N=C(N)Nc1cccc(C(=O)NCC(=O)NC(CCS(=O)(=O)c2ccccc2C(=O)O)CC(=O)O)c1 (racemic) [60(C), (±)2-[3-[[2-[[[3-[(aminoiminomethyl)amino]phenyl]carbonyl]amino]acetyl]amino]-4-carboxybutyl]sulfonyl]benzoic acid, trifluoroacetate] | 0.73
O=C(O)CC(NC(=O)CNC(=O)c1cccc(NC2=NCCCCC2)c1)c1ccc2c(c1)OCO2 (racemic) [Example 14, (±)β-[[2-[[[3-[(3,4,5,6-tetrahydro-2H-azepin-7-yl)amino]phenyl]carbonyl]amino]acetyl]amino]-1,3-benzodioxole-5-propanoic acid, TFA salt] | 1.62
